Reference: ChEMBL document CHEMBL4308841, “Synthesis, in vitro antiproliferative activity, and kinase inhibitory effects of pyrazole-containing diarylureas and diarylamides” (Eur J Med Chem, 2018)

How the values were obtained:
TK-10 = assay: Growth inhibition of human TK10 cells assessed as cell growth at 10 uM incubated for 48 hrs by sulforhodamine B assay relative to control; format: functional; details: TK-10, 48 h, read-out: Activity
A498 = assay: Growth inhibition of human A498 cells incubated for 48 hrs by sulforhodamine B assay; format: functional, cell-based; details: A498, 48 h
SNB-75 = assay: Growth inhibition of human SNB75 cells assessed as cell growth at 0.1 uM incubated for 48 hrs by sulforhodamine B assay relative to control; format: functional; details: SNB-75, 48 h, read-out: Activity
SN12C = assay: Growth inhibition of human SN12C cells assessed as cell growth at 0.1 uM incubated for 48 hrs by sulforhodamine B assay relative to control; format: functional; details: read-out: Activity
IGROV-1 = assay: Growth inhibition of human IGROV1 cells incubated for 48 hrs by sulforhodamine B assay; format: functional, cell-based; details: IGROV-1, 48 h
ACHN = assay: Growth inhibition of human ACHN cells assessed as cell growth at 0.01 uM incubated for 48 hrs by sulforhodamine B assay relative to control; format: functional; details: read-out: Activity
BT-549 = assay: Growth inhibition of human BT549 cells assessed as cell growth at 0.1 uM incubated for 48 hrs by sulforhodamine B assay relative to control; format: functional; details: BT-549, 48 h, read-out: Activity
PC-3 = assay: Growth inhibition of human PC3 cells assessed as cell growth at 100 uM incubated for 48 hrs by sulforhodamine B assay relative to control; format: functional; details: PC-3, 48 h, read-out: Activity
OVCAR-8 = assay: Growth inhibition of human OVCAR8 cells assessed as cell growth at 100 uM incubated for 48 hrs by sulforhodamine B assay relative to control; format: functional; details: OVCAR-8, 48 h, read-out: Activity
LOX IMVI = assay: Growth inhibition of human LOXIMVI cells incubated for 48 hrs by sulforhodamine B assay; format: functional
MOLT-4 = assay: Growth inhibition of human MOLT4 cells assessed as cell growth at 0.01 uM incubated for 48 hrs by sulforhodamine B assay relative to control; format: functional; details: MOLT-4, 48 h, read-out: Activity
HCT-15 = assay: Growth inhibition of human HCT15 cells assessed as cell growth at 100 uM incubated for 48 hrs by sulforhodamine B assay relative to control; format: functional; details: HCT-15, 48 h, read-out: Activity
SNB-19 = assay: Growth inhibition of human SNB19 cells assessed as cell growth at 0.1 uM incubated for 48 hrs by sulforhodamine B assay relative to control; format: functional; details: SNB-19, 48 h, read-out: Activity
SK-MEL-2 [1] = assay: Growth inhibition of human SK-MEL-2 cells assessed as cell growth at 0.1 uM incubated for 48 hrs by sulforhodamine B assay relative to control; format: functional; details: SK-MEL-2, 48 h, read-out: Activity
NCI/ADR-RES = assay: Growth inhibition of human NCI/ADR-RES cells incubated for 48 hrs by sulforhodamine B assay; format: functional, cell-based
DU-145 = assay: Growth inhibition of human DU145 cells incubated for 48 hrs by sulforhodamine B assay; format: functional, cell-based; details: DU-145, 48 h
RPMI-8226 = assay: Growth inhibition of human RPMI8226 cells assessed as cell growth at 100 uM incubated for 48 hrs by sulforhodamine B assay relative to control; format: functional; details: RPMI-8226, 48 h, read-out: Activity
SK-MEL-28 = assay: Growth inhibition of human SK-MEL-28 cells assessed as cell growth at 1 uM incubated for 48 hrs by sulforhodamine B assay relative to control; format: functional; details: SK-MEL-28, 48 h, read-out: Activity
KM12 = assay: Growth inhibition of human KM12 cells assessed as cell growth at 1 uM incubated for 48 hrs by sulforhodamine B assay relative to control; format: functional; details: KM12, 48 h, read-out: Activity
SK-OV-3 = assay: Growth inhibition of human SKOV3 cells assessed as cell growth at 0.1 uM incubated for 48 hrs by sulforhodamine B assay relative to control; format: functional; details: SK-OV-3, 48 h, read-out: Activity
OVCAR-3 = assay: Growth inhibition of human OVCAR3 cells assessed as cell growth at 100 uM incubated for 48 hrs by sulforhodamine B assay relative to control; format: functional; details: OVCAR-3, 48 h, read-out: Activity
UACC-257 = assay: Growth inhibition of human UACC257 cells assessed as cell growth at 100 uM incubated for 48 hrs by sulforhodamine B assay relative to control; format: functional; details: UACC-257, 48 h, read-out: Activity
HOP-62 [2] = assay: Growth inhibition of human HOP62 cells assessed as cell growth at 100 uM incubated for 48 hrs by sulforhodamine B assay relative to control; format: functional; details: HOP-62, 48 h, read-out: Activity
HOP-62 [3] = assay: Growth inhibition of human HOP62 cells assessed as cell growth at 0.01 uM incubated for 48 hrs by sulforhodamine B assay relative to control; format: functional; details: HOP-62, 48 h, read-out: Activity
UACC-62 = assay: Growth inhibition of human UACC62 cells assessed as cell growth at 1 uM incubated for 48 hrs by sulforhodamine B assay relative to control; format: functional; details: UACC-62, 48 h, read-out: Activity
NCI-H226 = assay: Growth inhibition of human NCI-H226 cells assessed as cell growth at 100 uM incubated for 48 hrs by sulforhodamine B assay relative to control; format: functional; details: NCI-H226, 48 h, read-out: Activity
K562 = assay: Growth inhibition of human K562 cells assessed as cell growth at 1 uM incubated for 48 hrs by sulforhodamine B assay relative to control; format: functional; details: K562, 48 h, read-out: Activity
HCT-116 = assay: Growth inhibition of human HCT116 cells assessed as cell growth at 0.01 uM incubated for 48 hrs by sulforhodamine B assay relative to control; format: functional; details: HCT-116, 48 h, read-out: Activity
SK-MEL-2 [4] = assay: Growth inhibition of human SK-MEL-2 cells assessed as cell growth at 100 uM incubated for 48 hrs by sulforhodamine B assay relative to control; format: functional; details: SK-MEL-2, 48 h, read-out: Activity
HL-60(TB) = assay: Growth inhibition of human HL-60(TB) cells assessed as cell growth at 0.1 uM incubated for 48 hrs by sulforhodamine B assay relative to control; format: functional; details: HL-60, 48 h, read-out: Activity
[5] = read-out: LC50 (the source's name)
[6] = read-out: pLC50 (the source's name) (converted)

## COc1cc(Cl)cc(-c2nn(-c3cccc(NC(=O)c4ccc(Cl)c(Cl)c4)c3)cc2-c2ccncc2)c1
TK-10
  growth at 10 µM: 104%

## O=C(Nc1cccc(-n2cc(-c3ccncc3)c(-c3cc(O)cc(Cl)c3)n2)c1)Nc1ccc(Cl)c(Cl)c1
A498; read-out: GI50
  GI50: 2.09 µM
A498; [5]
  CC50: 4.13 µM
A498; read-out: TGI
  TGI: 90.6 µM
A498; read-out: pGI50 (converted)
  GI50: 2.09 µM
A498; [6]
  CC50: 41.7 µM
A498; read-out: pTGI (converted)
  TGI: 9.12 µM
SNB-75
  growth at 0.1 µM: 52%
SN12C
  growth at 0.1 µM: 95%
IGROV-1; read-out: GI50
  GI50: 2.56 µM
IGROV-1; [5]
  CC50: > 100 µM
IGROV-1; read-out: TGI
  TGI: 92.3 µM
IGROV-1; read-out: pGI50 (converted)
  GI50: 2.88 µM
IGROV-1; [6]
  CC50: > 100 µM
IGROV-1; read-out: pTGI (converted)
  TGI: 9.33 µM
ACHN
  growth at 0.01 µM: 91%
BT-549
  growth at 0.1 µM: 93%
PC-3
  growth at 100 µM: -35%
OVCAR-8
  growth at 100 µM: -38%
LOX IMVI; read-out: GI50
  GI50: 1.56 µM
LOX IMVI; read-out: TGI
  TGI: 41 µM
LOX IMVI; read-out: pGI50 (converted)
  GI50: 1.86 µM
LOX IMVI; read-out: pTGI (converted)
  TGI: 4.17 µM
MOLT-4
  growth at 0.01 µM: 93%
HCT-15
  growth at 100 µM: -23%
SNB-19
  growth at 0.1 µM: 95%
SK-MEL-2 [1]
  growth at 0.1 µM: 96%
NCI/ADR-RES; read-out: GI50
  GI50: 3.21 µM
NCI/ADR-RES; [5]
  CC50: > 100 µM
NCI/ADR-RES; read-out: TGI
  TGI: > 100 µM
NCI/ADR-RES; read-out: pGI50 (converted)
  GI50: 3.24 µM
NCI/ADR-RES; [6]
  CC50: > 100 µM
NCI/ADR-RES; read-out: pTGI (converted)
  TGI: > 100 µM
DU-145; read-out: GI50
  GI50: 2.5 µM
DU-145; [5]
  CC50: > 100 µM
DU-145; read-out: TGI
  TGI: 10.1 µM
DU-145; read-out: pGI50 (converted)
  GI50: 2.82 µM
DU-145; [6]
  CC50: > 100 µM
DU-145; read-out: pTGI (converted)
  TGI: 10.2 µM
RPMI-8226
  growth at 100 µM: -27%
SK-MEL-28
  growth at 1 µM: 90%
KM12
  growth at 1 µM: 72%
SK-OV-3
  growth at 0.1 µM: 103%
OVCAR-3
  growth at 100 µM: -20%
UACC-257
  growth at 100 µM: -92%
HOP-62 [2]
  growth at 100 µM: -3%
HOP-62 [3]
  growth at 0.01 µM: 105%
UACC-62
  growth at 1 µM: 83%
NCI-H226
  growth at 100 µM: -41%
K562
  growth at 1 µM: 83%
HCT-116
  growth at 0.01 µM: 101%
SK-MEL-2 [4]
  growth at 100 µM: -52%
HL-60(TB)
  growth at 0.1 µM: 100%
